The values below come from ChEMBL document CHEMBL3616440, “Non-basic azolotriazinone MCHR1 antagonists for the treatment of obesity: An empirical brain-exposures-driven candidate selection for in vivo efficacy studies” (Bioorg Med Chem Lett, 2015).

For data set [1], the system named is Brain. Put plainly: Drug concentration in Sprague-Dawley rat brain assessed as 6-(4-chlorophenyl)-3-(4-(2-hydroxy-2-methylpropoxy)-3-methoxyphenyl)pyrrolo[1,2-f][1,2,4]triazin-4(3H)-one level at 10 mg/kg, po qd at 8 hrs. Format: ADME, organism-based. Particulars: in vivo.
Data set [2] in a line: Ratio of free drug level in brain of Sprague-Dawley rat assessed as 6-(4-chlorophenyl)-3-(4-(2-hydroxy-2-methylpropoxy)-3-methoxyphenyl)pyrrolo[1,2-f][1,2,4]triazin-4(3H)-one level at 10 mg/kg, po to Ki for rat MCHR1. In kind it is ADME, organism-based. Particulars: in vivo.
The test system of data set [3] is Rattus norvegicus. The experiment in a line: Antiobesity activity in Sprague-Dawley rat assessed as body weight reduction at 30 mg/kg, po qd after 4 days relative to control. In kind it is functional. Particulars: 96 h.
For data set [4], the system named is Rattus norvegicus. The experiment in a line: Antiobesity activity in Sprague-Dawley rat assessed as body weight reduction at 3 mg/kg, po qd after 4 days relative to control. In kind it is functional. The following applies: 96 h.
Data set [5] is described as follows: Cmax in Sprague-Dawley rat at 10 mg/kg, po qd after 1.5 hrs. In kind it is ADME, organism-based. On the set-up: dose 10 mg/kg, route oral. The following applies: in vivo.
Data set [6] deals with Brain. Put plainly: Drug concentration in Sprague-Dawley rat brain assessed as 6-(4-chlorophenyl)-3-(4-(2-hydroxy-2-methylpropoxy)-3-methoxyphenyl)pyrrolo[1,2-f][1,2,4]triazin-4(3H)-one level at 3 mg/kg, po qd at 20 hrs. In kind it is ADME, organism-based. Particulars: in vivo, read-out: Drug uptake.
A short description of data set [7]: Ratio of free drug level in brain of Sprague-Dawley rat assessed as 6-(4-chlorophenyl)-3-(4-(2-hydroxy-2-methylpropoxy)-3-methoxyphenyl)pyrrolo[1,2-f][1,2,4]triazin-4(3H)-one level at 3 mg/kg, po to Ki for rat MCHR1. In kind it is ADME, organism-based. Particulars: in vivo.
For data set [8], the system named is Rattus norvegicus. The experiment in a line: Cmax in Sprague-Dawley rat assessed as 6-(4-chlorophenyl)-3-(4-(2-hydroxy-2-methylpropoxy)-3-methoxyphenyl)pyrrolo[1,2-f][1,2,4]triazin-4(3H)-one level at 10 mg/kg, po qd at 4 hrs. Format: ADME, organism-based. Details: dose 10 mg/kg, route oral. The following applies: in vivo.
For data set [9], the system named is Brain. The experiment in a line: Free drug level in Sprague-Dawley rat brain assessed as 6-(4-chlorophenyl)-3-(4-(2-hydroxy-2-methylpropoxy)-3-methoxyphenyl)pyrrolo[1,2-f][1,2,4]triazin-4(3H)-one level at 10 mg/kg, po qd at 20 hrs. In kind it is ADME, organism-based. The following applies: in vivo.
Data set [10] has as its system Rattus norvegicus. The experiment in a line: Antiobesity activity in Sprague-Dawley rat assessed as body weight reduction at 10 mg/kg, po qd after 4 days relative to control. Format: functional. The following applies: 96 h.
Data set [11] is described as follows: AUC (0 to 8 hrs ) in Sprague-Dawley rat at 10 mg/kg, po qd. Details: time < 8 hr, dose 10 mg/kg, route oral. In kind it is ADME, organism-based. Particulars: in vivo.
In data set [12] the test system is Brain. Put plainly: Drug concentration in Sprague-Dawley rat brain assessed as 6-(4-chlorophenyl)-3-(4-(2-hydroxy-2-methylpropoxy)-3-methoxyphenyl)pyrrolo[1,2-f][1,2,4]triazin-4(3H)-one level at 10 mg/kg, po qd at 20 hrs. Format: ADME, organism-based. The following applies: in vivo, read-out: Drug uptake.
Data set [13] concerns Rattus norvegicus. Put plainly: AUC (0 to 8 hrs ) in Sprague-Dawley rat assessed as 6-(4-chlorophenyl)-3-(4-(2-hydroxy-2-methylpropoxy)-3-methoxyphenyl)pyrrolo[1,2-f][1,2,4]triazin-4(3H)-one level at 10 mg/kg, po qd. In kind it is ADME, organism-based. Details: dose 10 mg/kg, time < 8 hr, route oral. The following applies: in vivo.
Data set [14] has as its system Liver. The experiment in a line: Prodrug conversion in Sprague-Dawley rat liver assessed as 3-(4-(6-(4-chlorophenyl)-4-oxopyrrolo[1,2-f][1,2,4]triazin-3(4H)-yl)-2-methoxyphenoxy)-2-hydroxy-2-methylpropanoic acid formation at 10 mg/kg, po qd at 20 hrs post dose. Format: ADME, organism-based. Particulars: in vivo.
Data set [15] concerns Brain. The experiment in a line: Free drug level in Sprague-Dawley rat brain assessed as 6-(4-chlorophenyl)-3-(4-(2-hydroxy-2-methylpropoxy)-3-methoxyphenyl)pyrrolo[1,2-f][1,2,4]triazin-4(3H)-one level at 30 mg/kg, po qd at 20 hrs. In kind it is ADME, organism-based. Particulars: in vivo.
Data set [16] deals with Liver. Put plainly: Prodrug conversion in Sprague-Dawley rat liver assessed as 6-(4-chlorophenyl)-3-(4-(2,3-dihydroxypropoxy)-3-methoxyphenyl)pyrrolo[1,2-f][1,2,4]triazin-4(3H)-one formation at 10 mg/kg, po qd at 20 hrs post dose. The following applies: in vivo. Format: ADME, organism-based.
In data set [17] the test system is Plasma. The experiment in a line: Fraction unbound in Sprague-Dawley rat plasma assessed as 6-(4-chlorophenyl)-3-(4-(2-hydroxy-2-methylpropoxy)-3-methoxyphenyl)pyrrolo[1,2-f][1,2,4]triazin-4(3H)-one level. Format: ADME, cell-free.
The test system of data set [18] is Brain. Put plainly: Free drug level in Sprague-Dawley rat brain assessed as 6-(4-chlorophenyl)-3-(4-(2-hydroxy-2-methylpropoxy)-3-methoxyphenyl)pyrrolo[1,2-f][1,2,4]triazin-4(3H)-one level at 3 mg/kg, po qd at 20 hrs. In kind it is ADME, organism-based. The following applies: in vivo.
For data set [19], the system named is Liver. The experiment in a line: Prodrug conversion in Sprague-Dawley rat liver assessed as 6-(4-chlorophenyl)-3-(4-(2,3-dihydroxy-2-methylpropoxy)-3-methoxyphenyl)pyrrolo[1,2-f][1,2,4]triazin-4(3H)-one formation at 10 mg/kg, po qd at 20 hrs post dose. The following applies: in vivo. In kind it is ADME, organism-based.
The test system of data set [20] is Liver. The experiment in a line: Prodrug conversion in Sprague-Dawley rat liver assessed as 3-(4-(6-(4-chlorophenyl)-4-oxopyrrolo[1,2-f][1,2,4]triazin-3(4H)-yl)-2-methoxyphenoxy)-2-hydroxypropanoic acid formation at 10 mg/kg, po qd at 20 hrs post dose. Format: ADME, organism-based. The following applies: in vivo.
The subject of data set [21] is Brain. Put plainly: Drug concentration in Sprague-Dawley rat brain assessed as 6-(4-chlorophenyl)-3-(4-(2-hydroxy-2-methylpropoxy)-3-methoxyphenyl)pyrrolo[1,2-f][1,2,4]triazin-4(3H)-one level at 30 mg/kg, po qd at 20 hrs. In kind it is ADME, organism-based. Particulars: in vivo, read-out: Drug uptake.
A short description of data set [22]: Ratio of free drug level in brain of Sprague-Dawley rat assessed as 6-(4-chlorophenyl)-3-(4-(2-hydroxy-2-methylpropoxy)-3-methoxyphenyl)pyrrolo[1,2-f][1,2,4]triazin-4(3H)-one level at 30 mg/kg, po to Ki for rat MCHR1. Format: ADME, organism-based. The following applies: in vivo.
For data set [23], the system named is Plasma. Put plainly: Plasma concentration in Sprague-Dawley rat assessed as 6-(4-chlorophenyl)-3-(4-(2-hydroxy-2-methylpropoxy)-3-methoxyphenyl)pyrrolo[1,2-f][1,2,4]triazin-4(3H)-one level at 10 mg/kg, po qd at 8 hrs. Format: ADME, organism-based. The following applies: in vivo.
In another data set the test system is Nucleic Acid. Put plainly: Ratio of drug level in Sprague-Dawley rat brain to plasma assessed as 6-(4-chlorophenyl)-3-(4-(2-hydroxy-2-methylpropoxy)-3-methoxyphenyl)pyrrolo[1,2-f][1,2,4]triazin-4(3H)-one level at 10 mg/kg, po qd. Format: ADME, organism-based.

Broadly, the inhibition in vivo is the relative decrease from the control value, in per cent. Broadly, the Cmax is the highest concentration seen after dosing. As a reminder, the AUC is concentration integrated over time. For the compound `COc1cc(-n2cnn3cc(-c4ccc(Cl)cc4)cc3c2=O)ccc1OCC(C)(C)OC(=O)CN`, the Drug uptake with Brain [1] worked out at 4.551 µM. Also, the results for the Ratio in data set [2], in data set [7] and in [22] were 8.9, 3.5 and 26, respectively. In addition, the inhibition in vivo at 30 mg/kg with Rattus norvegicus [3] was determined as 6.9%. The inhibition in vivo at 3 mg/kg in the data set on Rattus norvegicus [4] stood at 3.6%. In addition, the Cmax in data set [5] is 5 nM; with Rattus norvegicus [8], 1570 nM. The concentration came out at 1570 nM with Brain [6], 4040 nM in the data set on Brain [12], 11700 nM with Brain [21] and 903 nM in the data set with Plasma [23]. In addition, the “Drug uptake(free)” value in the data set on Brain [9] was 16 nM; in the data set with Brain [15], 47 nM; in the data set on Brain [18] it was 6.3 nM. Further, the inhibition in vivo at 10 mg/kg in the data set on Rattus norvegicus [10] amounted to 4.7%. This compound also showed an area under the curve (AUC) at 8 h in [11] of 0.015 µM·h. Further, in the data set on Rattus norvegicus [13], the exposure (AUC) was 8.2 µM·h. Besides, the Drug metabolism in the data set on Liver [14] stood at 2.4 µM; with Liver [16], 10 µM; in the data set with Liver [19], 10 µM; in the data set on Liver [20], 2.4 µM. For the same compound, in the data set with Plasma [17], the Fu amounted to 0.4%. Further, in the data set with Nucleic Acid, the BPR is listed as 5.
